# Results taken from ChEMBL document CHEMBL5365500, “Development and Antibacterial Properties of 4-[4-(Anilinomethyl)-3-phenylpyrazol-1-yl]benzoic Acid Derivatives as Fatty Acid Biosynthesis Inhibitors” (J Med Chem, 2023).
# The source made the active and inactive calls. No cut-off for these calls is given here.
# Assays:
# Staphylococcus aureus [1] = experiment: Antimicrobial activity against Staphylococcus aureus ATCC 25923 assessed as inhibition of visible growth measured after 20 to 24 hrs incubation by CLSI method; type: functional; settings: time 20-24 hrs
# Staphylococcus aureus [2] = experiment: Antimicrobial activity against antibiotic-resistant Staphylococcus aureus ATCC BAA-2312 assessed as inhibition of visible growth measured after 20 to 24 hrs incubation by CLSI method; type: functional; settings: time 20-24 hrs
# Staphylococcus aureus [3] = experiment: Antimicrobial activity against antibiotic-resistant Staphylococcus aureus ATCC 33591 assessed as inhibition of visible growth measured after 20 to 24 hrs incubation by CLSI method; type: functional; settings: time 20-24 hrs
# Staphylococcus aureus [4] = experiment: Antimicrobial activity against antibiotic-resistant Staphylococcus aureus ATCC 33592 assessed as inhibition of visible growth measured after 20 to 24 hrs incubation by CLSI method; type: functional; settings: time 20-24 hrs
# Staphylococcus aureus [5] = experiment: Antimicrobial activity against antibiotic-resistant Staphylococcus aureus ATCC 700699 assessed as inhibition of visible growth measured after 20 to 24 hrs incubation by CLSI method; type: functional; settings: time 20-24 hrs
# [6] = tested on: Staphylococcus epidermidis; experiment: Antimicrobial activity against antibiotic-resistant Staphylococcus epidermidis ATCC 700296 assessed as inhibition of visible growth measured after 20 to 24 hrs incubation by CLSI method; type: functional; settings: time 20-24 hrs
# Enterococcus faecalis [7] = experiment: Antimicrobial activity against antibiotic-susceptible Enterococcus faecalis ATCC 29212 assessed as inhibition of visible growth measured after 20 to 24 hrs incubation by CLSI method; type: functional; settings: time 20-24 hrs
# Enterococcus faecalis [8] = experiment: Antimicrobial activity against antibiotic-resistant Enterococcus faecalis ATCC 51299 assessed as inhibition of visible growth measured after 20 to 24 hrs incubation by CLSI method; type: functional; settings: time 20-24 hrs
# Enterococcus faecium = experiment: Antimicrobial activity against antibiotic-resistant Enterococcus faecium ATCC 700221 assessed as inhibition of visible growth measured after 20 to 24 hrs incubation by CLSI method; type: functional; settings: time 20-24 hrs
# Bacillus subtilis = experiment: Antimicrobial activity against antibiotic-resistant Bacillus subtilis ATCC 6623 assessed as inhibition of visible growth measured after 20 to 24 hrs incubation by CLSI method; type: functional; settings: time 20-24 hrs
# Staphylococcus aureus [9] = experiment: In vivo antimicrobial activity against Staphylococcus aureus USA300 infected in Caenorhabditis elegans AU37 nematodes assessed as viability of nematodes incubated for 5 days by susceptibility test; type: functional; settings: USA300, 120 h, time 5 day
# Staphylococcus aureus [10] = experiment: In vivo antimicrobial activity against Staphylococcus aureus Newman infected in Caenorhabditis elegans AU37 nematodes assessed as viability of nematodes incubated for 5 days by susceptibility test; type: functional; settings: 120 h, time 5 day
# Staphylococcus aureus [11] = experiment: In vivo antimicrobial activity against Staphylococcus aureus UAMS-1 infected in Caenorhabditis elegans AU37 nematodes assessed as viability of nematodes incubated for 5 days by susceptibility test; type: functional; settings: UAMS-1, 120 h, time 5 day
# Staphylococcus aureus [12] = experiment: Antimicrobial activity against methicilline-resistant Staphylococcus aureus ATCC 700699 persisters assessed as bacterial killing at 32 time of MIC concentration measured for every 2 hrs upto 8 hrs by Persisters time course assay; type: functional, organism-based
# Staphylococcus aureus [13] = experiment: Antimicrobial activity against clinical isolate Staphylococcus aureus Smu109 assessed as inhibition of growth measured after 20 to 24 hrs incubation by CLSI method; type: functional; settings: time 20-24 hrs
# Staphylococcus aureus [14] = experiment: Antimicrobial activity against Staphylococcus aureus UAB159 assessed as inhibition of growth measured after 20 to 24 hrs incubation by CLSI method; type: functional; settings: time 20-24 hrs
# Staphylococcus aureus [15] = experiment: Antimicrobial activity against clinical isolate Staphylococcus aureus Smu9 assessed as inhibition of growth measured after 20 to 24 hrs incubation by CLSI method; type: functional; settings: time 20-24 hrs
# Staphylococcus aureus [16] = experiment: Antimicrobial activity against clinical isolate Staphylococcus aureus Smu21 assessed as inhibition of growth measured after 20 to 24 hrs incubation by CLSI method; type: functional; settings: time 20-24 hrs
# Staphylococcus aureus [17] = experiment: Antimicrobial activity against clinical isolate Staphylococcus aureus Smu57 assessed as inhibition of growth measured after 20 to 24 hrs incubation by CLSI method; type: functional; settings: time 20-24 hrs
# Staphylococcus aureus [18] = experiment: Antimicrobial activity against clinical isolate Staphylococcus aureus Smu81 assessed as inhibition of growth measured after 20 to 24 hrs incubation by CLSI method; type: functional; settings: time 20-24 hrs
# HEK293 = experiment: Cytotoxicity against human HEK293 cells assessed as cell viability measured after 24 hrs by resazurin assay; type: toxicity, cell-based
# Staphylococcus aureus [19] = experiment: Antimicrobial activity against Staphylococcus aureus ATCC 25923 assessed as eradication of biofilm measured after 24 hrs incubation by Calgary method; type: functional
# Enterococcus faecalis [20] = experiment: Antimicrobial activity against antibiotic-susceptible Enterococcus faecalis ATCC 29212 assessed as eradication of biofilm measured after 24 hrs incubation by Calgary method; type: functional
# Cell membrane = experiment: Induction of membrane permeability in Staphylococcus aureus ATCC 700699 assessed as increase in fluorescence intensity at 4 times of MIC incubated for 15 mins measured for 1 hr by propidium iodide/real time fluorescence based flow cytometry Rvb = 3.5); settings: time 75.0 min
# [21] = tested on: Panel NCI-60 (60 carcinoma cell lines); experiment: Cytotoxicity against human panel NCI-60 (60 carcinoma cell lines)cells assessed as cell viability at 10 uM measured after 24 hrs by resazurin assay; type: functional, cell-based
# Staphylococcus aureus [22] = experiment: Bactericidal activity in antibiotic-resistant Staphylococcus aureus ATCC 700699 assessed as reduction in viable cell count at 4 times of MIC measured upto 24 hrs by time kill assay; type: functional, organism-based
SMILES,MIC (Staphylococcus aureus [1]) [µg/mL],MIC (Staphylococcus aureus [2]) [µg/mL],MIC (Staphylococcus aureus [3]) [µg/mL],MIC (Staphylococcus aureus [4]) [µg/mL],MIC (Staphylococcus aureus [5]) [µg/mL],MIC [6] [µg/mL],MIC (Enterococcus faecalis [7]) [µg/mL],MIC (Enterococcus faecalis [8]) [µg/mL],MIC (Enterococcus faecium) [µg/mL],MIC (Bacillus subtilis) [µg/mL],MIC (Staphylococcus aureus [9]) [µg/mL],MIC (Staphylococcus aureus [10]) [µg/mL],MIC (Staphylococcus aureus [11]) [µg/mL],also measured
O=C(O)c1ccc(-n2cc(CNc3cc(C(F)(F)F)cc(C(F)(F)F)c3)c(-c3ccc(F)cc3)n2)cc1,1,1,0.5,1,2,4,4,4,2,1,1,0.5,1,–
O=C(O)c1ccc(-n2cc(CNc3cc(C(F)(F)F)cc(C(F)(F)F)c3)c(-c3cccc(F)c3)n2)cc1,2,1,1,1,2,4,4,2,2,1,–,–,–,Activity (Staphylococcus aureus [12]): Active
O=C(O)c1ccc(-n2cc(CNc3cc(Cl)cc(Cl)c3)c(-c3ccc(C(F)(F)F)cc3)n2)cc1,–,–,–,–,–,–,–,–,–,–,–,–,–,MIC (Staphylococcus aureus [13]): 2 µg/mL; MIC (Staphylococcus aureus [14]): 2 µg/mL; MIC (Staphylococcus aureus [15]): 1 µg/mL; MIC (Staphylococcus aureus [16]): 2 µg/mL; MIC (Staphylococcus aureus [17]): 2 µg/mL; MIC (Staphylococcus aureus [18]): 2 µg/mL
O=C(O)c1ccc(-n2cc(CNc3ccc(Br)c(Cl)c3)c(-c3ccc(F)cc3)n2)cc1,1,1,1,1,2,4,8,8,4,0.5,2,1,2,IC50 (HEK293): 20 µg/mL
O=C(O)c1ccc(-n2cc(CNc3cc(Cl)c(F)c(Cl)c3)c(-c3cccc(F)c3)n2)cc1,1,0.5,0.5,1,2,2,8,4,4,1,1,1,1,IC50 (HEK293): 20 µg/mL
O=C(O)c1ccc(-n2cc(CNc3cc(Cl)cc(C(F)(F)F)c3)c(-c3ccc(F)c(F)c3)n2)cc1,1,0.5,0.5,1,1,2,4,2,2,0.5,1,0.5,1,–
O=C(O)c1ccc(-n2cc(CNc3ccc(Cl)c(Cl)c3)c(-c3ccc(F)cc3)n2)cc1,2,1,0.5,2,1,4,> 32,> 32,> 32,1,1,1,1,–
O=C(O)c1ccc(-n2cc(CNc3cc(Cl)c(F)c(Cl)c3)c(-c3ccc(C(F)(F)F)cc3)n2)cc1,–,–,–,–,–,–,–,–,–,–,–,–,–,MIC (Staphylococcus aureus [13]): 2 µg/mL; MIC (Staphylococcus aureus [14]): 2 µg/mL; MIC (Staphylococcus aureus [15]): 2 µg/mL; MIC (Staphylococcus aureus [16]): 2 µg/mL; MIC (Staphylococcus aureus [17]): 2 µg/mL; MIC (Staphylococcus aureus [18]): 2 µg/mL
CCCCCCCCCC(=O)N[C@@H](Cc1c[nH]c2ccccc12)C(=O)N[C@H](CC(N)=O)C(=O)N[C@@H](CC(=O)O)C(=O)N[C@@H]1C(=O)NCC(=O)N[C@@H](CCCN)C(=O)N[C@@H](CC(=O)O)C(=O)N[C@H](C)C(=O)N[C@@H](CC(=O)O)C(=O)NCC(=O)N[C@H](CO)C(=O)N[C@@H]([C@H](C)CC(=O)O)C(=O)N[C@@H](CC(=O)c2ccccc2N)C(=O)O[C@@H]1C,–,–,–,–,8,–,16,16,16,–,4,4,4,MBEC (Staphylococcus aureus [19]): >32 µg/mL; MBEC (Enterococcus faecalis [20]): 16 µg/mL; Activity (Cell membrane): 7.02%
O=C(O)c1ccc(-n2cc(CNc3cc(Br)cc(C(F)(F)F)c3)c(-c3cccc(F)c3)n2)cc1,2,1,1,2,2,4,4,4,2,1,1,1,1,Activity [21]: inactive; Activity (Staphylococcus aureus [22]): Active; Activity (Staphylococcus aureus [12]): Active; MBEC (Staphylococcus aureus [19]): 4 µg/mL; MBEC (Enterococcus faecalis [20]): 4 µg/mL
O=C(O)c1ccc(-n2cc(CNc3cccc(OC(F)(F)F)c3)c(-c3ccc(F)cc3)n2)cc1,4,4,2,8,8,8,16,16,16,2,–,–,–,–
O=C(O)c1ccc(-n2cc(CNc3cc(F)c(F)c(F)c3)c(-c3ccc(F)cc3)n2)cc1,32,> 32,> 32,> 32,> 32,> 32,> 32,> 32,> 32,4,–,–,–,–
Cc1cc(NCc2cn(-c3ccc(C(=O)O)cc3)nc2-c2ccc(F)cc2)ccc1F,16,16,8,16,8,32,> 32,> 32,> 32,4,–,–,–,–
O=C(O)c1ccc(-n2cc(CNc3cc(Cl)cc(Cl)c3)c(-c3ccc(F)c(F)c3)n2)cc1,1,1,0.5,2,2,2,4,8,2,0.5,–,–,–,–
O=C(O)c1ccc(-n2cc(CNc3ccccc3)c(-c3ccc(F)cc3)n2)cc1,32,32,32,32,32,32,> 32,> 32,> 32,16,–,–,–,–
O=C(O)c1ccc(-n2cc(CNc3ccc(Br)cc3)c(-c3ccc(F)c(F)c3)n2)cc1,> 32,> 32,> 32,> 32,> 32,> 32,> 32,> 32,> 32,> 32,–,–,–,–
